Data published in the NIST ThermoML archive (doi:10.1016/j.jct.2016.10.009).

Conditions: Liquid, Vibrating tube method

CCC(C)O (configuration not stated) [butan-2-ol]
mass density [kg/m3]
Conditions	293.15 K	298.15 K	313.15 K	333.15 K	353.19 K	373.24 K	393.28 K
100 kPa	806.7	802.6	789.6	770.8	750.3	–	–
1000 kPa	807.4	803.3	790.3	771.8	751.4	729.1	704.8
5000 kPa	810.4	806.4	793.7	775.7	756	734.5	711.3
10000 kPa	814	810.1	797.8	780.3	761.3	740.8	718.8
15000 kPa	817.4	813.7	801.6	784.7	766.4	746.6	725.6
20000 kPa	820.7	817	805.3	788.9	771	751.9	731.7
25000 kPa	823.9	820.2	808.6	792.7	775.4	757	737.4
30000 kPa	826.9	823.4	812.1	796.4	779.5	761.6	742.7
35000 kPa	829.8	826.4	815.3	800	783.5	766.1	747.8
40000 kPa	832.7	829.2	818.4	803.5	787.2	770.3	752.5
45000 kPa	835.4	832	821.3	806.6	790.8	774.4	757
50000 kPa	838.1	834.7	824.3	809.8	794.4	778.1	761.2
55000 kPa	840.6	837.4	827.1	812.8	797.7	781.8	765.4
60000 kPa	843.2	839.9	829.8	815.8	801	785.3	769.2
65000 kPa	845.6	842.4	832.5	818.7	804.1	788.8	772.9
70000 kPa	848	844.8	835	821.4	807.2	792.1	776.6
80000 kPa	852.6	849.5	839.9	826.8	812.9	798.4	783.4
90000 kPa	857.1	854.1	844.7	831.9	818.3	804.3	789.8
100000 kPa	861.2	858.3	849.1	836.7	823.5	809.8	795.8
110000 kPa	865.3	862.4	853.5	841.3	828.5	815.1	801.5
120000 kPa	869.2	866.3	857.6	845.6	833.1	820.1	806.8
130000 kPa	873	870.1	861.5	849.9	837.6	824.9	811.9
140000 kPa	876.6	873.9	865.4	853.9	842	829.5	816.8

CC(C)OC(C)C [diisopropyl ether]
mass density [kg/m3]
Conditions	293.15 K	298.15 K	313.15 K	333.15 K	353.19 K	373.24 K	393.28 K
100 kPa	723.5	718.3	702.4	680.5	–	–	–
1000 kPa	724.6	719.6	703.8	682.1	659.5	635.6	609.5
5000 kPa	729.4	724.5	709.4	688.9	667.6	645.5	622.1
10000 kPa	734.9	730.2	715.8	696.4	676.5	656.1	635
15000 kPa	740	735.6	721.7	703.2	684.4	665.3	645.8
20000 kPa	744.8	740.5	727.2	709.4	691.5	673.5	655.2
25000 kPa	749.4	745.2	732.1	715.1	698	680.8	663.5
30000 kPa	753.7	749.6	737.1	720.5	704	687.6	671.1
35000 kPa	757.7	753.7	741.6	725.6	709.7	693.8	677.9
40000 kPa	761.6	757.8	745.9	730.3	714.8	699.6	684.3
45000 kPa	765.3	761.6	750	734.8	719.7	705	690.2
50000 kPa	768.9	765.2	753.9	739.1	724.6	710.1	695.8
55000 kPa	772.4	768.8	757.7	743.1	728.9	714.9	701.1
60000 kPa	775.7	772.2	761.3	747.1	733.2	719.5	705.9
65000 kPa	778.9	775.4	764.8	750.9	737.2	723.9	710.6
70000 kPa	782	778.6	768.1	754.4	741.1	728.1	715.2
80000 kPa	787.9	784.6	774.4	761.3	748.4	735.9	723.5
90000 kPa	793.5	790.3	780.5	767.7	755.4	743.2	731.3
100000 kPa	798.8	795.7	786.1	773.7	761.6	750	738.4
110000 kPa	803.9	800.8	791.4	779.4	767.8	756.3	745.3
120000 kPa	808.7	805.6	796.5	784.7	773.4	762.3	751.4
130000 kPa	813.2	810.3	801.4	789.9	778.8	768	757.4
140000 kPa	817.6	814.6	806	794.8	784	773.3	763.1
